The source made the active and inactive calls. No cut-off for these calls is given here.

In one assay the test system is KB. Description: Cytotoxicity against human KB cells by resazurin assay. It is filed as functional, cell-based.
With `C[C@@H]1OC[C@@H]2[C@@H](C[C@H]3c4c(c5ccccc5n4C)C[C@@H]2N3C)[C@H]1CO` [MACROCARPINE B], the IC50 (as a rule, the concentration needed to halve the response being measured) was greater than 100 µM.
Still for that read-out and setting: with `Cc1c2ccncc2c(C)c2c1[nH]c1ccccc12` [ELLIPTECINE] the figure was 4.87 µM; with `CC(=O)C1=COC[C@@H]2[C@H]1C[C@H]1[C@H](O)C[C@@H]2N1C` [ANGUSTIMALINE], greater than 100 µM; with `C/C=C1/CN2CC[C@@]34c5cc(OC)ccc5N(C)[C@H]3[C@@H]2C[C@H]1[C@@H]4C(=O)OC`, greater than 100 µM.
On the same count and under the same terms, with `COc1cccc2c1C(=O)c1c(O)c3c(c(O)c1C2=O)C[C@@](O)(C(=O)CO)C[C@@H]3O[C@H]1C[C@H](N)[C@H](O)[C@H](C)O1` [DOXORUBICIN] the figure was 0.55 µM; with `COc1ccc2c(c1)N(C)C(=O)[C@@]21C[C@@H]2N[C@H]1C[C@H]1C(C(C)=O)=COC[C@@H]21`, greater than 100 µM.
Regarding `C[C@@H]1OC[C@@H]2[C@@H](C[C@H]3c4c(c5ccccc5n4C)C[C@@H]2N3C)[C@@H]1C=O` [Talcarpine], the IC50 is greater than 100 µM.
Same read-out and setting: as for `C[C@@H]1OC[C@@H]2[C@@H](C[C@H]3C4=Nc5ccccc5C4=C[C@@H]2[N+]3(C)[O-])[C@@H]1CO` (stereo not given in full) [ALSTONIAPHYLLINE C], the figure is greater than 100 µM; as for `CC(=O)C1=COC[C@@H]2[C@H]1C[C@H]1C(=O)C[C@@H]2N1C` [ALSTONIAPHYLLINE A], greater than 100 µM; as for `CC1=C(C=O)[C@@H]2C[C@H]3c4c(c5ccccc5n4C)C[C@@H]([C@@H]2CO1)N3C` [ALSTONERINAL], greater than 100 µM.
Still for that read-out and setting: with `CC(=O)C1=COC[C@H]2[C@@H]3C[C@@]4(C(=O)N(C)c5ccccc54)[C@H](C[C@@H]12)N3` [ALSTONAL] the figure was greater than 100 µM; with `C[C@@H]1OC[C@@H]2[C@@H](C[C@H]3C(=O)C[C@@H]2N3C)[C@@H]1CO` [ALSTONIAPHYLLINE B], greater than 100 µM.
Take `COc1ccc2c3c(n(C)c2c1)[C@@H]1C[C@H]2C(C=O)=C(C)OC[C@H]2[C@H](C3)N1C` [ALSTOPHYLLAL]: the IC50 was greater than 100 µM.

Another assay deals with Plasmodium falciparum. The experiment in a line: Antimalarial activity against multidrug-resistant Plasmodium falciparum K1 by [3H]-hypoxanthine incorporation assay. It is filed as functional, organism-based.
For the molecule `COc1ccc2c(c1)N(C)C(=O)[C@@]21C[C@@H]2N[C@H]1C[C@H]1C(C(C)=O)=COC[C@@H]21`, the result was Active.
Turning to `CC(=O)C1=COC[C@H]2[C@@H]3C[C@@]4(C(=O)N(C)c5ccccc54)[C@H](C[C@@H]12)N3` [ALSTONAL], inhibition was half-maximal at 7.6 µM (IC50). In other words, the single-digit micromolar range.

The record behind these values is ChEMBL document CHEMBL2331197, “Alstoniaphyllines A-C, unusual nitrogenous derivatives from the bark of Alstonia macrophylla” (J Nat Prod, 2013).
